Laboratory results reported in patent US6887878B2, “KMST isoeugenol derivatives and pharmaceutical activity” (Ing-Jun Chen, priority 2003, dated 2005).
Where two headings read alike, the source gives them in different places.

How the values were obtained:
[1] = target: α2 receptors; experiment: [3H]yohimbine receptor binding in rat cortex; parameters: species or system Wistar rat
Experimental: (§1) The homogenate was pressure filtered through muslin. Filtrate was centrifuged at 1000 g for 10 min. […] Protein content was determined by Bradford's method.

[2] = target: α1 receptors; experiment: [3H]prazosin receptor binding in rat cortex; parameters: species or system Wistar rat
Experimental: as §1

[3] = target: T1, 5-HT1B (Rattus norvegicus, UniProt P28564); experiment: [3H]GR125743 receptor binding in rat cortex; parameters: species or system Wistar rat
T1 construct: from tissue; host or cells: Wistar rat cortex membranes
Experimental: as §1

[4] = LPS-induced blood glucose changes; format: in vivo, rat; conditions: for LPS-induced early hyperglycemia: at 1 and 3 hours; for LPS-induced hypoglycemia: at 5 hours
Experimental: (§2) In brief, Wistar rats weighing 250-300 g were anesthetized with pentobarbital sodium (50 mg kg^−1, i.p.). Following tracheal cannulation, systemic arterial BP and HR were recorded from the femoral artery by a pressure transducer (model P10EZ; Spectramed, Oxnard, Calif., U.S.A.) connected to a recorder (GOULD, Valley View, Ohio, Model P50). Body temperature was maintained at 37° C. by an electric heating pad. A femoral vein was cannulated for intravenous injection of drugs and LPS (10 mg kg^−1).
(§3) Blood was collected from venous cannula, injected into ice-cold heparinized Eppendorf tubes and centrifuged at 1500 rpm for 10 min at 4° C. Plasma supernatant was stored at −70° C. until analyzed. Solid phase enzyme immunoassay that specifically detects murine IL-1β, IL-6, IFN-γ and TNF-α was used with a detection limit of >10 pg/ml (Endogen, U.S.A). Pre-treatment with KMST and other agents was performed 15 minutes before intravenous injection of LPS. Blood was collected from venous cannula. Blood glucose was measured with a glucose test strip (Glucotide, Bayer, U.S.A) at 1, 3 and 5 hours.

[5] = system: phenylephrine-induced contractions in rat thoracic aorta; experiment: LPS-induced vascular hyporeactivity: phenylephrine-induced contractions in rat thoracic aorta; format: in vivo, Wistar rat
[6] = system: IL-1β, IL-6, IFN-γ and TNF-α; experiment: LPS-induced plasma cytokine immunoreactivity; format: in vivo, rat; conditions: 1 hour after LPS administration
Experimental: as §2, §3

[7] = system: lipid peroxidation in rat brain homogenate; experiment: lipid peroxidation initiated by Fe2+-ascorbic acid in rat brain homogenates (TBARS); format: biochemical; conditions: rat brain homogenates; read-out: IC50 inhibiting lipid peroxidation initiated by Fe2+-ascorbic acid
Experimental: Rat brain homogenate was made in 0.9% saline containing 10 mg tissue/ml. The rates of membrane lipid peroxidation were measured by the formation of thiobarbituric acid (TBA)-reactive substance (TBARS). Rat brain homogenates (1 ml) were incubated at 37° C. for 5 min with 10 μl of test compound or vehicle. […] After 30 min of incubation, the reaction was stopped by adding 0.1 ml of 0.2% BHT. TBA reagent was then added and the mixture was heated for 30 min in a boiling water bath. […] The amount of TBARS was quantified using the linear regression obtained from malondialdehyde (MDA) standards.

[8] = target: 5-HT2A receptor (Rattus norvegicus, UniProt P14842); experiment: [3H]ketanserin receptor binding in rat cortex; parameters: from tissue; host or cells: Wistar rat cortex membranes; species or system Wistar rat
Experimental: as §1

[9] = target: T2, β1 receptors (Rattus norvegicus, UniProt P18090); experiment: [3H]CGP-12177 receptor binding in rat ventricle; parameters: species or system Wistar rat; conditions: [3H]CGP-12177, rat ventricle
T2 construct: from tissue; host or cells: Wistar rat heart (ventricle) membranes
Experimental: as §1

[10] = target: T3, β2 receptors (Rattus norvegicus, UniProt P10608); experiment: [3H]CGP-12177 receptor binding in rat lung; parameters: species or system Wistar rat; conditions: [3H]CGP-12177, rat lung
T3 construct: from tissue; host or cells: Wistar rat lung membranes
Experimental: as §1

[11] = system: α1-adrenergic receptor; experiment: noradrenaline-induced contraction in isolated rat thoracic aorta (pA2); parameters: species or system Wistar rat; conditions: Schild plot, mean ± SEM of eight
Experimental: Clonidine, noradrenaline and serotonin (10^−8˜10^−4 M) were added to the bath to induce contractions after pretreatment with KMST for 15 min.

[12] = target: T4, 5-HT1A (Rattus norvegicus, UniProt P19327); experiment: [3H]WAY100635 receptor binding
T4 sequence (P19327 1-422): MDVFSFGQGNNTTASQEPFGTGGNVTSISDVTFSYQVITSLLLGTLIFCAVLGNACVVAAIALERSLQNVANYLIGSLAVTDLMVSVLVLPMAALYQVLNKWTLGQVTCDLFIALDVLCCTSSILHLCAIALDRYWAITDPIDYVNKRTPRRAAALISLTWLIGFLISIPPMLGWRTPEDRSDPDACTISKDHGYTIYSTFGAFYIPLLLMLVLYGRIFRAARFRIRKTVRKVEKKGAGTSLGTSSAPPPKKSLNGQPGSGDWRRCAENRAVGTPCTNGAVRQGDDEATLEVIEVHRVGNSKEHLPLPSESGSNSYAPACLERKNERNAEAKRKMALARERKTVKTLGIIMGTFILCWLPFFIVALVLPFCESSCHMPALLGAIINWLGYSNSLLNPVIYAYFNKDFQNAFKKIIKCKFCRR

[13] = system: serotonin-induced human platelet aggregation; experiment: serotonin-induced human platelet aggregation; format: cell-based; conditions: Homo sapiens, Platelet; read-out: IC50 serotonin-induced platelet aggregation
Experimental: Venous blood from human volunteer donors was collected in 10 ml Monovette containing 1 ml citrate solution (0.106M trisodium citrate; Sarstedt, Nümbrecht, Germany) and centrifuged (400 g, 10 min, 20° C.). […] After centrifugation (10 min, 2000 g, 20° C.), the platelet pellet was resuspended in wishing buffer (113 mM NaCl, 4 mM Na2HPO4, 24 mM NaH2PO4, 4 mM KCl, 0.2 mM EGTA(Ethylene glycol-bis-(2-aminoethyl ether) N,N,N′-tetraacetic acid), 0.1% (wt/vol) glucose, pH 6.0) and recentrifuged (10 min, 2000 g, 20° C.). The washed platelets were resuspended in incubation buffer (134 mM NaCl, 12 mM NaHCO3, 2.9 mM KCl, 0.34 mM NaH2PO4, 5 mM HEPES (N-(2-hydroxyethyl) piperazine-N′-(2-ethanesulfonic acid)), 5 mM glucose, pH7.4), cells were counted in a Sysmex hematology analyzer (Sysmex, CDA-500, Japan) and adjusted to a final concentration of 2×10^8 platelets/ml.
The aggregation of the platelets in platelet-rich plasma (PRP) was measured as a change in light absorbance by a Payton dual-channel aggregometer (NBS, Hema tracer, Japan). PRP (240 μL) was stirred (700 rpm) at 37° C. for 1 min, and 5 μL epinephrine (final concentration 5 μM), serotonin (final concentration 5 μM) was added. After which the rate of primary aggregation (1/min) and maximum aggregation (%) at 5 min were recorded. To study the effects of compounds on epinephrine or serotonin-induced aggregation, PRP was incubated with 5 μL of compounds at various concentrations for 1 min before epinephrine or serotonin was added. IC50 values given were calculated from the secondary aggregation data.

[14] = after LPS injection (1 hr), 15 mg kg-1
[15] = before LPS injection (30 min), 1 mg kg-1
[16] = before LPS injection (30 min), 15 mg kg-1
[17] = agent given after LPS injection (1 hr), pD2 to phenylephrine
[18] = agent given before LPS injection (30 min), pD2 to phenylephrine

Chain of 5-HT2A receptor (P14842 whole entry): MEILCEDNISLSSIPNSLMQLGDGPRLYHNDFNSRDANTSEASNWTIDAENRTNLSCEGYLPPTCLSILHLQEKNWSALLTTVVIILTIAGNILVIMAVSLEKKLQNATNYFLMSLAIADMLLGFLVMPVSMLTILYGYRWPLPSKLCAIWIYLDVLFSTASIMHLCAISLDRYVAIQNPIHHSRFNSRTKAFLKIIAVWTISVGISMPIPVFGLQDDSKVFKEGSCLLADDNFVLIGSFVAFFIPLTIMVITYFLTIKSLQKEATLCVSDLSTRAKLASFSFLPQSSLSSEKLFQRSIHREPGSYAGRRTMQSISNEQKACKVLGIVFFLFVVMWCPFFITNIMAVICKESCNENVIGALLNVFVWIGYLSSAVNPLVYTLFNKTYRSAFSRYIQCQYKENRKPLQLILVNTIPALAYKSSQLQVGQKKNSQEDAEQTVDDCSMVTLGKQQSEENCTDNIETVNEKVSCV
T3 sequence (P10608 whole entry): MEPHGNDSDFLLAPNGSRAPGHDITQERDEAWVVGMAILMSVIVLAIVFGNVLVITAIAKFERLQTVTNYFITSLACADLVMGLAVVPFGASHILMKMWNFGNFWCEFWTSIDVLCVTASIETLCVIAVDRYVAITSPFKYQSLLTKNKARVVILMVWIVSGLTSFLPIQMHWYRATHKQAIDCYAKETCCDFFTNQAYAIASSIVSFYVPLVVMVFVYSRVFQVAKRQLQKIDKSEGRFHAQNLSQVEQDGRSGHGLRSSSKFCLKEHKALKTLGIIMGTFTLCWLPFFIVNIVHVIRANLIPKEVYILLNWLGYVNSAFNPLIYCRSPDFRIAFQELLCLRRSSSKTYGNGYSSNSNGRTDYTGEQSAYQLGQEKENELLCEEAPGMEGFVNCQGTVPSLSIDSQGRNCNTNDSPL
T2 sequence (P18090 whole entry): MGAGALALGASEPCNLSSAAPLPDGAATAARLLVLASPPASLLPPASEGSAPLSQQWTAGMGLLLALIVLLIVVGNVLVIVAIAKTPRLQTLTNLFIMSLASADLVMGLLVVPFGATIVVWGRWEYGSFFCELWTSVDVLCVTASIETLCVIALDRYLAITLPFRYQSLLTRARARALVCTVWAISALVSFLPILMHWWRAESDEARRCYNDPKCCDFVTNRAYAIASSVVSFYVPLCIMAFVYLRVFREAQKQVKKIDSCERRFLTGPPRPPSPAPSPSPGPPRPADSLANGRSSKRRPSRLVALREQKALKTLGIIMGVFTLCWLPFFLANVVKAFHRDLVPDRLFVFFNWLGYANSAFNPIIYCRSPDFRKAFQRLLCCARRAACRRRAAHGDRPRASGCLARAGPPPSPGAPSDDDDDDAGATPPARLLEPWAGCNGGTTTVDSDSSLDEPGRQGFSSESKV
T1 sequence (P28564 whole entry): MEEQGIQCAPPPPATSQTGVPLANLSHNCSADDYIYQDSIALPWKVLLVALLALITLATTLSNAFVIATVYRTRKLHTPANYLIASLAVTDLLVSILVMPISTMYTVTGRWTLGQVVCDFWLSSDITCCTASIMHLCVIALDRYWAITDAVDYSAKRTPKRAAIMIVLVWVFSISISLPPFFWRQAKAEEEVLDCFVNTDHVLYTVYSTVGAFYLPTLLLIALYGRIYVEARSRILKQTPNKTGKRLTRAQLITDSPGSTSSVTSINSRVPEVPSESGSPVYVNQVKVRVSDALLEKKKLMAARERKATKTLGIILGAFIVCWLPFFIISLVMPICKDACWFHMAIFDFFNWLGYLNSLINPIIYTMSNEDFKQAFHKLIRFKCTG

Molecule: CC(C)NCC(O)COc1ccc(CC(N)=O)cc1 (stereo not drawn) [Atenolol]
- Ki [1]: > 10 µM
- Ki [2]: > 10 µM

Molecule: CCCCCCCCCOc1ccc2[nH]cc(CCN)c2c1 [5-nonyloxytryptamine, reference compound]
- Ki [3]: 0.00581 µM

Molecule: O=C1O[C@H]([C@@H](O)CO)C(O)=C1O [Ascorbic acid]
- LPS-induced early hyperglycemia [4]: inhibited
- LPS-induced hypoglycemia [4]: did not affect
- pD2 at 3rd hr [5, 14]: 6.64 ± 0.16
- pD2 at 5th hr [5, 14]: 5.21 ± 0.12
- pD2 at 3rd hr [5, 15]: 7.07 ± 0.25
- pD2 at 5th hr [5, 15]: 5.04 ± 0.28
- pD2 at 3rd hr [5, 16]: 6.71 ± 0.13
- pD2 at 5th hr [5, 16]: 5.11 ± 0.22
- LPS-induced production of IFN-γ [6]: insignificantly enhanced
- IC50 [7]: 7.15 ± 0.14 µM

Molecule: Isoeugenolol [reference compound]
- Ki [8]: 0.585 µM
- Ki [1]: > 10 µM
- Ki [2]: > 10 µM
- Ki [9]: 0.209 µM
- Ki [10]: 6.86 µM

Molecule: Isoeugenodilol [reference compound]
- Ki [8]: 1.01 µM
- Ki [1]: 9.7 µM
- Ki [2]: 0.0389 µM
- Ki [9]: 0.0436 µM
- Ki [10]: 0.0537 µM

Molecule: O=C(c1ccc(F)cc1)C1CCN(CCn2c(=O)[nH]c3ccccc3c2=O)CC1 [Ketanserin, reference compound]
- Ki [1]: 2.27 µM
- α1 pA2 value [11]: 7.74 ± 0.32
- Ki [2]: 0.0158 µM
- Ki [12]: > 10 µM
- IC50 [13]: 0.01 µM
- Ki ([3]; [3H]GR125743 (5-HT1B/1D), rat cortex, read-out: Ki 5-HT1B): > 10 µM

Molecule: Cl.N=C(N)NN [Aminoguanidine, aminoguanidine HCl]
- LPS-induced early hyperglycemia [4]: inhibited
- LPS-induced hypoglycemia [4]: did not affect
- pD2 at 3rd hr [5, 17]: 6.48 ± 0.13
- pD2 at 5th hr [5, 17]: 5.81 ± 0.14
- pD2 at 3rd hr [5, 18]: 6.81 ± 0.17
- pD2 at 5th hr [5, 18]: 5.44 ± 0.31
- IC50 [7]: > 100 µM
